A short description of series [1]: Solvent / liquid delivery medium in which the benzo is soluble.
Series [2] has as its system benzodiazepine-dependent patient. Briefly: Gradual liquid micro-taper withdrawal from benzodiazepine dependency in patients. The note with it: for daily dosage at which withdrawal symptoms once again emerge during the taper: patients tapered at the found daily reduction rate, typical value.
Series [3] has as its system CYP 450 enzymes. To be noted: cited from earlier work.
Series [4] concerns benzodiazepine-dependent patient. Briefly: Step taper method (comparison, FIG. 3). To be noted: step taper abruptly halted at 0.5 mg.

Turning to `Cc1nnc2n1-c1ccc(Cl)cc1C(c1ccccc1)=NC2` [Alprazolam], the correct solvent result in series [1] is “ethanol”.
In the case of `CNC1=Nc2ccc(Cl)cc2C(c2ccccc2)=[N+]([O-])C1` [Chlordiazepoxide], the “daily dosage at which withdrawal symptoms once again emerge during the taper” value in series [2] is ~12.5 mg.
For the compound `O=C1Nc2ccc(Cl)cc2C(c2ccccc2)=NC1O` (centres unmarked) [Oxazepam], in series [3], the “metabolism by CYP 450 enzyme pathways” value is listed as “not metabolized by the CYP 450 enzyme pathways”.
On to `O=C1Nc2ccc(Cl)cc2C(c2ccccc2Cl)=NC1O` (centres unmarked) [Lorazepam], for which the “metabolism by CYP 450 enzyme pathways” value in series [3] was “not metabolized by the CYP 450 enzyme pathways”.
With `CN1C(=O)CN=C(c2ccccc2)c2cc(Cl)ccc21` [Diazepam], in series [4], the “post withdrawal syndrome after step taper” value was “causes the feared post withdrawal syndrome”. Moreover, the “amount of ethanol to create a useable solution” value in series [1] (ethanol) was “about 0.19 mL ethanol per 1.0 mg”. Further, in series [2] (daily reduction, increased gradually from 0.05 mg), the “daily dosage cut that is often the limit” value is on record as 0.1 mg. Moreover, the “post withdrawal syndrome after taper” value in series [2] (method of the patent, line 310, taper to zero milligrams) is reported as “eliminates the post withdrawal syndrome”. In series [2] (patient on 14.0 mg starting dose, method of the patent, line 310), the “symptom escalation during taper (FIG. 3)” value was “no symptom escalation from dosage reduction”. Further, the “daily dosage at which withdrawal symptoms once again emerge during the taper” value in series [2] is listed as ~5.0 mg.
As for `O=C1CN=C(c2ccccc2Cl)c2cc([N+](=O)[O-])ccc2N1` [Clonazepam], in series [3], the half-life entry is recorded as “relatively long half-life” and the metabolites entry is reported as “no active metabolites”. Moreover, in series [1] (4% fat homogenized milk), the “suitability of fat/water emulsion as liquid in which the benzo is soluble” value is given as “suitable”. Also, the “daily dosage at which withdrawal symptoms once again emerge during the taper” value in series [2] is on record as ~0.25 mg.

The values above are taken from patent US9301963B2, “Treatment tool and method of gradual withdrawal from bezodiazepine dependency” (priority 2011, dated 2016).
